Data reported in US11096891B2, “Hybrid muco-adhesive delivery systems and use thereof” (TECHNION RESEARCH & DEVELOPMENT FOUNDATION LIMITED, priority 2016, dated 2021).

Key:
CAL-27 cells [1] = assay: MTT cell viability assay; type: cell-based, human; conditions: 24 and 48 hr
Procedure: The cytotoxicity of chemotherapeutic drugs to CAL-27 cells was determined using the MTT assay. Cells were plated in 96-well plate in density of 50,000 cells per well in a total volume of 200 μl medium. After 24 hours the cells were treated with different drugs and liposomes for 24 h and 48 h. All experiments were done in quadruplicates.
Cell viability was evaluated by MTT assay, a colorimetric assay based on the ability of viable cells to reduce a soluble yellow MTT substrate to a blue formazan crystal by mitochondrial succinate dehydrogenase activity of viable cells. This test is a good index of mitochondrial activity and thus of cell viability. After 24 or 48 hr of treatment, the medium was aspirated, and 100 μL of MTT, 1 mg/mL in PBS were added to each well. After MTT addition the plates were covered and returned to the incubator at 37° C. for 2 hr, the optimal time for formazan product formation. […] The absorbance was measured at 570 nm and the background absorbance measured at 690 nm.
In exemplary procedures, alginate gels incorporating either empty or doxorubicin loaded liposomes were prepared as described above, in a volume of 100 μL each with liposome proportion of 6.7%, 16.7% and 33.3% (v/v). […] Viability was measured using the MTT assay. […]

CAL-27 cells [2] = assay: CellTiter-Glo viability, alginate pastes on permeable tissue culture inserts; type: cell-based, human; conditions: alginate paste hybrid system
Procedure: In order to examine the effectivity of the proposed hybrid system, alginate pastes with empty liposomes, free drug and drugs loaded liposomes were tested for their effect on CAL-27 cells using permeable tissue culture inserts. Cell viability was determined using the Cell Titer-Glo® assay (see Table 6 below showing the relative cell viability obtained after 24 and 48 hr of treatment with hybrid system and FIG. 25).

[3] = Liposome release from alginate pastes spread on tongue tissue; type: physicochemical; conditions: 3% Ca+2-Ba+2 cross-linked alginate paste, simulated saliva buffer pH 6.8, 37° C.
Procedure: Alginate-fluorescein containing liposomes pastes were prepared by dissolving 30, 40 or 50 mg alginate-fluorescein in 0.4 mL DDW and 0.6 mL of fluorescently labeled liposome solution. The mixtures were stirred until homogenous viscous solutions were achieved. Alginate-fluorescein paste (50 μL) was spread on porcine's tongue tissue (1 cm×1 cm) which was glued with cyanoacrylate glue to a weight and placed in a vail with […] saliva buffer, pH 6.8. One sample (paste on a tissue) was inserted into dialysis bag and the absorbance of this sample was used as a blank. The vail was immersed in a shaking water/ethylene-glycole bath at 37° C. and 25 rpm. An aliquot (200 μL) of eluted liposome medium was removed for quantification; this volume was replaced with fresh buffer. The release of alginate-fluorescein and liposome was quantified by measuring the fluorescence (alginate-fluorescein: λex420 nm, λem530 nm, labeled liposome: λex530 nm, […]) of the release media at different time points.
pastes were prepared by dissolving 40 mg alginate or alginate-SH, or 300 mg alginate-PEGAc.
Alginate paste (50 μL) was spread on a piece of tissue which was glued with cyanoacrylte glue to a weight and placed in a vail with 10 ml 0.01M PBS, pH=6.8. […] An aliquot (200 μL) of eluted liposome medium was removed for quantification; this volume was replaced with fresh buffer. […]

[4] = Release of fluorescent dye from alginate paste on porcine tongue under shear flow; type: physicochemical; conditions: after two hours, 0.01M PBS pH 6.8, 37° C.
Excerpt: A home-made apparatus was designed, based on a flow cell for assessing the mucoadhesion of pastes and viscous polymer solutions under shear flow conditions. The experiment was set up by mixing viscous solution of alginate with the fluorescent dye solution, by that, the fluorescent dye was non-covalently attached to alginate. The pastes were spread on a slice of porcine tongue simulating the target tissue. The tissue holding the paste was placed in a vial and was subject to shear flow while immersed in PBS solution (see FIG. 1A).

In the case of O=c1[nH]cc(F)c(=O)[nH]1 [5-FU free drug, 5-fluorouracil], the “Toxicity to cancer cells, drug loaded liposomes versus free drug” value (CAL-27 cells [1]) is reported as “slower in action and therefore seemed less efficient within the 48 hr experiment”.
For COc1cccc2c1C(=O)c1c(O)c3c(c(O)c1C2=O)C[C@@](O)(C(=O)CO)C[C@@H]3O[C@H]1C[C@H](N)[C@H](O)[C@H](C)O1 [Free Doxorubicin, doxorubicin], the “Relative cell viability 24 h” value (CAL-27 cells [2]; 24 h) was 0.04 ± 0.008, the “Relative cell viability 48 h” value (CAL-27 cells [2]; 48 h) was 0.00 ± 0.000 and the “Release of doxorubicin from cross-linked pastes” value [3] was “similar, and sustained”.
For CCN(CC)c1ccc2c(-c3ccc(S(=O)(=O)O)cc3S(=O)(=O)[O-])c3ccc(=[N+](CC)CC)cc-3oc2c1 [fluorescent marker, sulforhodamine B], the “Release of fluorescent marker to external PBS solution” value [4] was “completely released”.
